Results reported in patent US20090054332A1, “THOMBOPOIETIN PEPTIDE CONJUGATES” (CONJUCHEM BIOTECHNOLOGIES, INC., priority 2007, published 2009).
Where no end group is shown, it is not given here. Side-chain parts run from the residue outwards. [ ]: non-standard residue; d: D form. The star is where a group is joined. K(MPA) = lysine carrying the MPA reactive group; Propanoyl(3-maleimido) = O=C1C=CC(=O)N1CCC(=O)*; MPA = maleimido propionic acid reactive group; Aoc = NCCCCCCCC(=O)O

Tested on: not given
Assay: not given
Conditions: phase I trials, adult and pediatric populations; cited from earlier work

Substance | Safety of administration
rhTPO: full length, glycosylated molecule known as recombinant human thrombopoietin | safe administration

Tested on: Platelet count
Assay: In vivo potency: platelet count after a single injection in CD-1 mice
Set-up: species or system mouse
Conditions: female CD-1 mice, single intravenous injection, 10 nmol/kg, 6 days postdose vs prior to dosing, n=4/group
Method: Ten to twelve-week old female CD-1 mice were administered with a single injection of the TPO derivatives indicated below at 10 nmol/kg (n=4/group). The DAC™ compounds in Table 4 are variants of TPO peptides modified to include an MPA reactive group, thereby forming an MPA-modified unconjugated peptides. The DAC™ compounds in Table 4 were administered intravenously. Albumin conjugates of the DAC™ compounds (also referred to herein as Preformed Conjugates (PC)) were injected subcutaneously. For each mouse, a blood sample was collected prior to dosing and 6 days postdose via the […]. Platelet counts were measured using an ABC Vet analyzer using standard procedures.
Platelet count fold increases are reported in Table 4 and 5 for MPA-modified TPO peptide and the albumin TPO conjugate, respectively.

Substance | Platelet Count Fold Increase [fold]
(reactive group)-GGGGG-ARAALWQRLTPGEI-GGGGGGGG-ARAALWQRLTPGEI ({Propanoyl(3-maleimido)}-GGGGGARAALWQRLTPGEIGGGGGGGGARAALWQRLTPGEI) [MPA-modified form of SEQ ID NO: 125, unconjugated DAC compound] | <3
(reactive group)-GGGGG-ARAALWQRLTPGEI-GGGGGGGG-IEGPTLRQWLAARA ({Propanoyl(3-maleimido)}-GGGGGARAALWQRLTPGEIGGGGGGGGIEGPTLRQWLAARA) [MPA-modified form of SEQ ID NO: 121, unconjugated DAC compound] | <3
(reactive group)-GGGGG-IEGPTLRQWLAARA-GGGGGGGG-ARAALWQRLTPGEI ({Propanoyl(3-maleimido)}-GGGGGIEGPTLRQWLAARAGGGGGGGGARAALWQRLTPGEI) [MPA-modified form of SEQ ID NO: 117, unconjugated DAC compound] | <3
(reactive group)-GGGGG-IEGPTLRQWLAARA-GGGGGGGG-IEGPTLRQWLAARA ({Propanoyl(3-maleimido)}-GGGGGIEGPTLRQWLAARAGGGGGGGGIEGPTLRQWLAARA) [MPA-modified form of SEQ ID NO: 168, unconjugated DAC compound] | 5.1
(reactive group)-GGGGG-IEGPTLRQWLAARA-GGGGGGGG-LQGPTLRAWRAGMA ({Propanoyl(3-maleimido)}-GGGGGIEGPTLRQWLAARAGGGGGGGGLQGPTLRAWRAGMA) [MPA-modified form of SEQ ID NO: 185, unconjugated DAC compound] | <3
(reactive group)-GGGGG-LQGPTLRAWRAGMA-GGGGGGGG-IEGPTLRQWLAARA ({Propanoyl(3-maleimido)}-GGGGGLQGPTLRAWRAGMAGGGGGGGGIEGPTLRQWLAARA) [MPA-modified form of SEQ ID NO: 184, unconjugated DAC compound] | <3
Ac-ARAALWQRLTPGEI-GGGGGGGG-ARAALWQRLTPGEI-K(OA-reactive group) (Ac-ARAALWQRLTPGEIGGGGGGGGARAALWQRLTPGEIK([Aoc-Propanoyl(3-maleimido)])) [MPA-modified form of SEQ ID NO: 127, unconjugated DAC compound] | <3
Ac-ARAALWQRLTPGEI-GGGGGGGG-IEGPTLRQWLAARAI-K(OA-reactive group) (Ac-ARAALWQRLTPGEIGGGGGGGGIEGPTLRQWLAARAIK([Aoc-Propanoyl(3-maleimido)])) [MPA-modified form of SEQ ID NO: 123, unconjugated DAC compound] | <3
IEGPTLRQWLAARA-GGGGGGGG-IEGPTLRQWLAARA-(OA)-K-(reactive group) (IEGPTLRQWLAARAGGGGGGGGIEGPTLRQWLAARA-{Aoc-K(MPA)}) [MPA-modified form of SEQ ID NO: 190, unconjugated DAC compound] | 5.0
IEGPTLRQWLAARA-GGGGGGGG-IEGPTLRQWLAARA-K-OA-OA-(reactive group) (IEGPTLRQWLAARAGGGGGGGGIEGPTLRQWLAARAK-{Aoc-Aoc-MPA}; not fully specified) [MPA-modified form of SEQ ID NO: 170, unconjugated DAC compound] | 4.7
IEGPTLRQWLAARA-GGGGGGGG-IEGPTLRQWLAARA-OA-OA-K-(reactive group) (IEGPTLRQWLAARAGGGGGGGGIEGPTLRQWLAARA-{Aoc-Aoc-K(MPA)}) [MPA-modified form of SEQ ID NO: 169, unconjugated DAC compound] | 4.4
LQGPTLRAWRAGMA-GGGGGGGG-IEGPTLRQWLAARA-(OA)-K-(reactive group) (LQGPTLRAWRAGMAGGGGGGGGIEGPTLRQWLAARA-{Aoc-K(MPA)}) [MPA-modified form of SEQ ID NO: 191, unconjugated DAC compound] | <3

Same assay, conditions: female CD-1 mice, single subcutaneous injection of preformed albumin conjugate, 10 nmol/kg, 6 days postdose vs prior to dosing, n=4/group

Substance | Platelet Count Fold Increase [fold]
Albumin-conjugate of SEQ ID NO: 168: Preformed albumin conjugate (PC) of the MPA-modified TPO peptide of SEQ ID NO: 168 ({Propanoyl(3-maleimido)}-GGGGGIEGPTLRQWLAARAGGGGGGGGIEGPTLRQWLAARA; also: MPA-linked preformed albumin conjugate, site not given here) | 4.3
Albumin-conjugate of SEQ ID NO: 169: Preformed albumin conjugate (PC) of the MPA-modified TPO peptide of SEQ ID NO: 169 (IEGPTLRQWLAARAGGGGGGGGIEGPTLRQWLAARA-{Aoc-Aoc-MPA}; also: MPA-linked preformed albumin conjugate, site not given here) | 3.8
Albumin-conjugate of SEQ ID NO: 170: Preformed albumin conjugate (PC) of the MPA-modified TPO peptide of SEQ ID NO: 170 (IEGPTLRQWLAARAGGGGGGGGIEGPTLRQWLAARAK[Aoc]; not fully specified; printed as IEGPTLRQWLAARA-GGGGGGGG-IEGPTLRQWLAARA-K-OA-; also: MPA-linked preformed albumin conjugate, site not given here) | 4.4
